According to PMC9317966, “Structure-function analysis of the AMPK activator SC4 and identification of a potent pan AMPK activator” (Biochemical Journal, 2022):

How the values were obtained:
[1] = tested on: C2C12 myoblasts; assay: C2C12 oxygen consumption rate (Seahorse), mitochondrial function; type: cell-based, Murine; settings: for basal respiration, ATP production, maximal respiration, spare respiratory capacity, non-mitochondrial oxygen consumption and coupling efficiency: 1 h
Method: Murine C2C12 myoblasts were plated at 1 × 10^4 cells/well into Agilent Seahorse XFe24 Cell Culture Microplates in DMEM (life Technologies, Australia) containing 10% (v/v) fetal calf serum, 1% L-glutamine (v/v), and 1% (v/v) antibiotic solution (100 unit/ml penicillin/streptomycin) at 37°C in an atmosphere of 5% CO2. The next day, cells were switched to Seahorse basal assay media (Agilent, cat#: 102353-100; 48.5 ml) containing Glutamax (500 µl of 100×; Gibco, cat#35050), D-glucose (Sigma–Aldrich cat#: G8769) and sodium pyruvate (100×; Gibco cat#: 11360-070) at pH 7.4. MK-8722 at varying doses (0, 1, 10 µM) was incubated with myotubes 1 h prior to experiment, and the assay performed by titrating oligomycin (2 µM), FCCP (2 µM), and rotenone (2 µM) plus antimycin A (2 µM) as indicated. A Seahorse XFe24 Flux Analyzer (Seahorse Biosciences) was used to measure Oxygen Consumption Rate (OCR) at three time points during basal respiration and after each injection. Cells were lysed in equal volume (20 µl) and OCR measurements were normalised to total protein determined by polyacrylamide electrophoresis (5 µl lysate/well) and stain-free imaging.
Lysates were assessed for phosphorylation of AMPKα-Thr172 by immunoblot. n = 3, data presented as mean T172 phosphorylation (arbitrary units) ± SEM. Statistical significance vs. respective vehicle treatment was performed using unpaired, two-tailed Student’s t-test. **** P < 0.0001 indicates significant increase in a-Thr172 phosphorylation relative to vehicle treated WT γ1AMPK. Representative immunoblots are shown. (B) C2C12 myoblast oxygen consumption rate following treatment of MK-8722 (0, 1, 10 µM) for 1 h and titration of specific respiration modulators. (C-I) Parameters of mitochondrial function. n = 6-7, data presented as mean oxygen consumption rate ± SEM. […] (J) Lysates were assessed for total protein content following the respiration assay.

[2] = tested on: PC3 cells; assay: Immunoblot of AMPK signalling in PC3 cells; type: cell-based; settings: PC3, 2.5 µM, 1 h
Method: To evaluate the efficacy of MSG011 in cellulo, we incubated mouse primary hepatocytes with 2.5 µM MSG011 for 60 min and tracked changes in phosphorylation of AMPK α-Thr172 (marker of activation) and the AMPK substrate acetyl-CoA carboxylase (ACC) Ser79 (AMPK signalling marker).
HEK293T/17, HEK293T, COS7, HeLa and PC3 cells (ATCC) were maintained in Dulbecco's Modified Eagle's medium (DMEM; Sigma–Aldrich) supplemented with 10% fetal bovine serum (FBS; Assay Matrix) at 37°C and 5% CO2. Primary hepatocytes from wild type mice were prepared using the collagenase perfusion method and cultured as described previously. Cultures were incubated with fresh DMEM (no FBS) for 2 h prior to 1 h treatment with MSG011 (dissolved in DMSO) or phenformin (dissolved in H2O). Adherent HEK293T/17 cells at ∼50% confluency were triply transfected with AMPK α1 (pcDNA3.1 vector), β1 (COOH-terminal MYC fusion, pcDNA3.1 vector) and WT γ1 or γ1-R299G mutant (NH2-terminal HA fusion, pMT2 vector) in the presence of FuGENE HD transfection reagent (Promega) as per the manufacturers protocol. […]
All samples were separated on 12% SDS–PAGE gels and transferred to an Immobilon-FL PVDF membrane (Merck Millipore). […] Immunoblots were visualised on the Odyssey Infrared Imaging System (LI-COR Biosciences) and immunoreactive bands analysed and quantified using Image Studio Software (LI-COR Biosciences).

| Compound | cell viability by total protein stain ([1]; 0, 1, 10 µM, after respiration assay) | basal respiration, ATP production, maximal respiration, spare respiratory capacity, non-mitochondrial oxygen consumption and coupling efficiency ([1]; 1 µM) | basal respiration, ATP production, maximal respiration, spare respiratory capacity, non-mitochondrial oxygen consumption and coupling efficiency ([1]; 10 µM) | AMPK signalling (phosphorylation of ACC-Ser79 and raptor-Ser792) [2] | α-Thr172 phosphorylation [2] |
| --- | --- | --- | --- | --- | --- |
| O[C@@H]1CO[C@H]2[C@@H]1OC[C@H]2Oc1nc2nc(-c3ccc(-c4ccccc4)cc3)c(Cl)cc2[nH]1 [MK-8722, reference compound] | not due to loss of cell viability | not | significantly impaired |  |  |
| CC(=O)NC1CC=C(c2ccc(-c3nc4nc(Oc5ccc(C)c(C(=O)O)c5)[nH]c4cc3Cl)cc2)CC1 (centres unmarked) [MSG011, 5-((5-(4′-Acetamido-2′,3′,4′,5′-tetrahydro-[1,1′-biphenyl]-4-yl)-6-chloro-1H-imidazo[4,5-b]pyridin-2-yl)oxy)-2-methylbenzoic acid] |  |  |  | significantly activated AMPK | independent of changes to α-Thr172 phosphorylation |
